Patent US10005767B2, “Compositions and methods for inhibition of the JAK pathway” (Rigel Pharmaceuticals, Inc., priority 2009, dated 2018)
pIC50: −log10 of the molar value. Structures can show the parent of a compound that is named as a salt. Where two headings read alike, the source gives them in different places.

System: human primary T-cells, IL-2 stimulated proliferation (JAK-1 and JAK-3 dependent; reported as JAK3 activity)
Assay: Human primary T-cell proliferation stimulated by IL-2 (Example 3)
Type: cell-based
Details: tested under conditions described in Example 3 (IL-2 stimulated human primary T-cell proliferation), read-out: ability to inhibit JAK3 activity, IC50 range (Table V)
Summary of the method: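 Peripheral-blood human T-cells pre-activated via TCR/CD28, IL-2-starved overnight, then cultured 72 h at 37 °C with compound in Yssel's medium containing IL-2 (80 U/mL in cell suspension). Proliferation read as viable-cell ATP by CellTiter-Glo luminescence; reduction versus control taken as JAK pathway inhibition.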

Structure (SMILES) | pIC50 (Homo sapiens, T-cell) | pIC50
Cc1cnc(Nc2ccc(NC3CC4CCC(C3)N4C)cc2)nc1Nc1ccc2oc(=O)[nH]c2c1 (stereo not drawn) [Compound I-121, N4-(benzo[d]oxazol-2(3H)-on-5-yl)-N2-(4-(8-methyl-8-azabicyclo[3.2.1]octan-3-ylamino)phenyl)-5-methylpyrimidine-2,4-diamine] | 5.30 to 6.30 | –
Cc1cc(Nc2ncc(C)c(Nc3ccc4oc(=O)[nH]c4c3)n2)ccc1N1CCN2CCCCC2C1 (stereo not drawn) [Compound I-122, N4-(benzo[d]oxazol-2(3H)-on-5-yl)-N2-((4-(dihydro-1H-pyrido[1,2-a]pyrazin-2(6H,7H,8H,9H,9aH)-yl)-3-methyl)phenyl)-5-methylpyrimidine-2,4-diamine] | – | > 6.30
Cc1cnc(Nc2ccc(N3CCC4CCC3N4C)cc2)nc1Nc1ccc2oc(=O)[nH]c2c1 (stereo not drawn) [Compound I-123, N4-(benzo[d]oxazol-2(3H)-on-5-yl)-N2-(4-(8-methyl-2,8-diazabicyclo[3.2.1]octan-2-yl)phenyl)-5-methylpyrimidine-2,4-diamine] | > 6.30 | –
Cc1cnc(Nc2ccc(OC(F)(F)F)c(N3CCOCC3)c2)nc1Nc1ccc2oc(=O)[nH]c2c1 [Compound I-124, N4-(benzo[d]oxazolin-2(3H)-one-5-yl)-5-methyl-N2-[3-(morpholin-4-yl)-4-trifluoromethoxyphenyl]-2,4-pyrimidinediamine] | > 6.30 | –
COC(=O)c1ccc(Nc2ncc(C)c(Nc3ccc4oc(=O)[nH]c4c3)n2)cc1 [Compound I-125, 4-[5-Methyl-4-(2-oxo-2,3-dihydro-benzooxazol-5-ylamino)-pyrimidin-2-ylamino]-benzoic acid methyl ester] | > 6.30 | –
Cc1cnc(Nc2ccc(C(=O)O)cc2)nc1Nc1ccc2oc(=O)[nH]c2c1 [Compound I-126, 4-[5-Methyl-4-(2-oxo-2,3-dihydro-benzooxazol-5-ylamino)-pyrimidin-2-ylamino]-benzoic acid] | > 6.30 | –
CCN(CC)CCNC(=O)c1ccc(Nc2ncc(C)c(Nc3ccc4oc(=O)[nH]c4c3)n2)cc1 [Compound I-127, N-(2-Diethylamino-ethyl)-4-[5-methyl-4-(2-oxo-2,3-dihydro-benzooxazol-5-ylamino)-pyrimidin-2-ylamino]-benzamide] | > 6.30 | –
CCN(CC)C1CCN(C(=O)c2ccc(Nc3ncc(C)c(Nc4ccc5oc(=O)[nH]c5c4)n3)cc2)C1 (stereo not drawn) [Compound I-128, 5-{2-[4-(3-Diethylamino-pyrrolidine-1-carbonyl)-phenylamino]-5-methyl-pyrimidin-4-ylamino}-3H-benzooxazol-2-one] | > 6.30 | –
CC(=O)c1ccc(Nc2ncc(C)c(Nc3ccc4oc(=O)[nH]c4c3)n2)cc1 [Compound I-129, 5-[2-(4-Acetyl-phenylamino)-5-methyl-pyrimidin-4-ylamino]-3H-benzooxazol-2-one] | > 6.30 | –
CC(=O)c1cccc(Nc2ncc(C)c(Nc3ccc4oc(=O)[nH]c4c3)n2)c1 [Compound I-130, 5-[2-(3-Acetyl-phenylamino)-5-methyl-pyrimidin-4-ylamino]-3H-benzooxazol-2-one] | > 6.30 | –
Cc1ccc(Nc2ncc(C)c(Nc3ccc4oc(=O)[nH]c4c3)n2)cc1C#N [Compound I-131, 2-Methyl-5-[5-methyl-4-(2-oxo-2,3-dihydro-benzooxazol-5-ylamino)-pyrimidin-2-ylamino]-benzonitrile] | > 6.30 | –
Cc1cnc(Nc2ccc(C(=O)N(C)C)cc2)nc1Nc1ccc2oc(=O)[nH]c2c1 [Compound I-132, N,N-Dimethyl-4-[5-methyl-4-(2-oxo-2,3-dihydro-benzooxazol-5-ylamino)-pyrimidin-2-ylamino]-benzamide] | > 6.30 | –
CNC(=O)c1ccc(Nc2ncc(C)c(Nc3ccc4oc(=O)[nH]c4c3)n2)cc1 [Compound I-133, N-Methyl-4-[5-methyl-4-(2-oxo-2,3-dihydro-benzooxazol-5-ylamino)-pyrimidin-2-ylamino]-benzamide] | > 6.30 | –
Cc1cnc(Nc2ccc(C(=O)NC3CC3)cc2)nc1Nc1ccc2oc(=O)[nH]c2c1 [Compound I-134, N-Cyclopropyl-4-[5-methyl-4-(2-oxo-2,3-dihydro-benzooxazol-5-ylamino)-pyrimidin-2-ylamino]-benzamide formate salt] | > 6.30 | –
Cc1cnc(Nc2ccc(C(=O)Nc3ccccc3)cc2)nc1Nc1ccc2oc(=O)[nH]c2c1 [Compound I-135, 4-[5-Methyl-4-(2-oxo-2,3-dihydro-benzooxazol-5-ylamino)-pyrimidin-2-ylamino]-N-phenyl-benzamide] | > 6.30 | –
Cc1cnc(Nc2ccc(C(N)=O)c(N3CCCC3)c2)nc1Nc1ccc2oc(=O)[nH]c2c1 [Compound I-136, 4-[5-Methyl-4-(2-oxo-2,3-dihydro-benzooxazol-5-ylamino)-pyrimidin-2-ylamino]-2-pyrrolidin-1-yl-benzamide] | > 6.30 | –
CCNC(=O)c1ccc(Nc2ncc(C)c(Nc3ccc4oc(=O)[nH]c4c3)n2)cc1 [Compound I-137, N-Ethyl-4-[5-methyl-4-(2-oxo-2,3-dihydro-benzooxazol-5-ylamino)-pyrimidin-2-ylamino]-benzamide] | > 6.30 | –
Cc1cnc(Nc2ccc(C(=O)NC3CCC3)cc2)nc1Nc1ccc2oc(=O)[nH]c2c1 [Compound I-138, N-Cyclobutyl-4-[5-methyl-4-(2-oxo-2,3-dihydro-benzooxazol-5-ylamino)-pyrimidin-2-ylamino]-benzamide formic acid salt] | > 6.30 | –
Cc1cnc(Nc2ccc(C(=O)NC(C)C)cc2)nc1Nc1ccc2oc(=O)[nH]c2c1 [Compound I-139, N-Isopropyl-4-[5-methyl-4-(2-oxo-2,3-dihydro-benzooxazol-5-ylamino)-pyrimidin-2-ylamino]-benzamide] | > 6.30 | –
Cc1cnc(Nc2ccc(C(N)=O)c(Cl)c2)nc1Nc1ccc2oc(=O)[nH]c2c1 [Compound I-141, 2-Chloro-4-[5-methyl-4-(2-oxo-2,3-dihydro-benzooxazol-5-ylamino)-pyrimidin-2-ylamino]-benzamide trifluoroacetic acid salt] | > 6.30 | –
CCC(=O)n1c(=O)oc2ccc(Nc3nc(Nc4ccc(C(N)=O)cc4)ncc3C)cc21 [Compound I-145, 4-[5-Methyl-4-(2-oxo-3-propionyl-2,3-dihydro-benzooxazol-5-ylamino)-pyrimidin-2-ylamino]-benzamide] | > 6.30 | –
Cc1cnc(Nc2ccc(C(N)=O)cc2)nc1Nc1ccc2oc(=O)n(COP(=O)(OC(C)(C)C)OC(C)(C)C)c2c1 [Compound I-146, di-tert-butyl (5-(2-(4-carbamoylphenylamino)-5-methylpyrimidin-4-ylamino)-2-oxobenzo[d]oxazol-3(2H)-yl)methyl phosphate] | 5.30 to 6.30 | –
Cc1cnc(Nc2ccc(C(N)=O)cc2)nc1Nc1ccc2oc(=O)n(COP(=O)(O)O)c2c1 [Compound I-147, (5-(2-(4-carbamoylphenylamino)-5-methylpyrimidin-4-ylamino)-2-oxobenzo[d]oxazol-3(2H)-yl)methyl dihydrogen phosphate] | > 6.30 | –
Cc1cnc(Nc2ccc(C(=O)NC3CCC3)cc2)nc1Nc1ccc2oc(=O)n(COP(=O)(O)O)c2c1 [Compound I-150, (5-(2-(4-(cyclobutylcarbamoyl)phenylamino)-5-methylpyrimidin-4-ylamino)-2-oxobenzo[d]oxazol-3(2H)-yl)methyl dihydrogen phosphate] | > 6.30 | –
